Patent US20160208249A1, “Compositions and Methods for Inducing Senescence in Cancer Cells” (INSERM (Institut National de la Sante et de la Recherche …, priority 2013, published 2016)

Experiments:
[1] = tested on: NF-kB; experiment: NF-kB luciferase reporter activity in melanoma cells; format: cell-based, human; conditions: A375, 4 days; PGJ2 1.5 μM, Bay 11-7082 2 μM, sulfasalazine 50 μM (FIG. 8A)
Experimental: Cells were transfected with NF-kB-luciferase reporter (NF-kB-Luc, Qiagen Germantown Md.) sensitive to overall NF-kB activation and with CMV promoter b-Galactosidase (pCMVβGal) for normalization purpose. Lipofectamine 2000 (Invitrogen, Carlsbad, Calif.) was used as transfection agent. 48 hrs post transfection, luciferase activity was tested using the luciferase assay system kit (Promega) and measured with the Clarity Luminescence Microplate Reader (Bio-Tek Instruments, Winooski, Vt.).
For gene reporter activity post gene silencing using RNA interference, cells were first transfected with SiRNAs according to experimental design using as transfecting agent Lipofectamine RNAimax as previously described. 24 hrs post transfection cells were again transfected using EZH2 promoter Renilla construct or NF-kB-luciferase reporter and pCMVβGal. 48 hrs after addition of the reporter plasmid, cells were harvested and luciferase or Renilla activity measured as above mentioned.

[2] = tested on: EZH2; experiment: qRT-PCR analysis of EZH2 mRNA in A375 cells; format: cell-based, human; conditions: for EZH2 mRNA: A375 cells treated for 3 days (FIG. 1B)
Experimental: Transfection experiments with Small interfering RNAs (siRNAs): Typically 30 000 to 50 000 cells were plated in 6-well culture plates and transfected 24 hours later with 25 nM or 50 nM siRNAs using Lipofectamine RNAimax (Invitrogen) according to manufacturer protocol. If not otherwise described cells were incubated with the si-RNA for 4 days prior harvesting for further experiments. […] As non specific control, a scramble sequence siRNA was used (cat. 16106, Ambion, Life Technologies, Grand Island, N.Y.).
(§1) Quantitative RT-PCR analysis: Total RNA was isolated from cells using RNAeasy minikit (Qiagen) according to manufacturer's procedure. Reverse transcription was performed using AMV reverse transcription system (Promega) while quantitative PCR was performed with Power Sybr green (Applied biosystem, Life Technologies, Grand Island, N.Y.) following manufacturer instructions (List of primers are available in supplementary information). PCR reaction was carried on a Step One plus Real-Time PCR system (Applied Biosystems). All analyses were done in triplicate and melting curve analysis was performed to control for product quality and specificity. Expression levels were calculated using the comparative method of relative quantification, with SB34 as normalizer. Data were analyzed for their statistical significance applying Student's t-test. Results are presented as mean±SEM relative to the control.
(§2) Transcription Factor Decoys (TFD) preparation and treatment. Double stranded TFDs were obtained by annealing at 95 C two complementary single stranded oligos (purchased from Invitrogen). TFDs were designed by copying the NF-kB2 sequences discovered on the EZH2 promoter (i.e. p52 decoy referred as and TFD4 as previously described). […] If not otherwise described cells were incubated with the TFDs for 4 days prior harvesting for qPCR evaluation of EZH2 levels or Senescence associated-β-Gal assay. As non specific control, a scramble sequence was used.

[3] = tested on: EZH2; experiment: Western blot of EZH2 protein in melanoma cell lines; format: cell-based, human; conditions: metastatic melanoma cell lines carrying or not B-RAF V600E; PGJ2 2 μM 3 days, Bay 11-7082 2 μM 4 days
Experimental: Western Blot: Twenty to thirty micrograms of total proteins were run on 12% SDS-polyacrylamide gel electrophoresis. After transfer to polyvinylidene fluoride membrane (Millipore), immunoblotting was performed according to Laemli method. Glyceraldehyde-3-phosphate dehydrogenase (GAPDH), β-Actin or ERK2 were used as loading controls. Membranes were then incubated with an enhanced chemiluminescence system (Amersham) and immunoreactive bands were visualized using the luminescent image analyzer Fujifilm LAS-4000 (GE Healthcare).

[4] = tested on: EZH2; experiment: EZH2 level in melanoma cells cultured from patients' metastases; format: cell-based, human; conditions: melanoma cells from nine patients' metastases, PGJ2 2 μM 3 days / 1.5 μM 4 days
Experimental: Cell Culture: HEK293, Human A375 (CRL-1619), SK-Mel-28 (HTB-72) and MeWo (HTB-65) melanoma cell lines were purchased from American Tissue Culture Collection (Molsheim, France). Human primary melanoma cells were extracted from metastatic melanoma specimens that were obtained from the Department of Dermatology and the Biobank of the University hospital of Nice, France. All patients provided informed written consent. Biopsy was dissected and digested for 1-2 h with collagenase A (0.33 U/ml), dispase (0.85 U/ml) and Dnase I (144 U/ml) with rapid shaking at 37° C. Large debris were removed by filtration through a 70-μm cell strainer. Viable cells were obtained by Ficoll gradient centrifugation. […]
as §1, with “PCR reaction was carried on a Step One plus Real-Time PCR system (Applied Biosystems). All analyses were done in triplicate and melting curve analysis was performed to control for product quality and specificity.” left out, “Results are presented as mean±SEM relative to the control.” left out

[5] = tested on: melanoma; conditions: cited from earlier work
[6] = tested on: A375 melanoma cells; experiment: Senescence associated-β-Gal assay; format: cell-based, human; conditions: 4 days
Experimental: Senescence associated-β-Gal assay: Cells were washed then fixed for 15 min at RT and stained using the Senescence β-Galactosidase staining kit following manufacturer instruction (Cell Signaling, Beverly, Mass.). A blue color reflects the β-Gal activity.
as §2

Molecule | NF-kB activity [1] | EZH2 mRNA [2] | EZH2 at protein level [3] | senescence / SA-β-Gal activity [6] | further results
Cc1ccc(S(=O)(=O)/C=C/C#N)cc1 [Bay 11-7082] | inhibition of NF-kB activity | marked decrease | decrease of EZH2 at protein level |  | 
CCCCC/C=C/C=C1/C(=O)C=C[C@@H]1C/C=C\CCCC(=O)O [PGJ2, 15-deoxy-delta12,14-Prostaglandin J2] | inhibition of NF-kB activity | marked decrease | decrease of EZH2 at protein level |  | EZH2 protein level [4]: consistent decrease of EZH2; start of effect on EZH2 mRNA ([2]; A375, time and dose dependent (FIG. 1C)): ≤ 6 h
O=C(O)c1cc(/N=N/c2ccc(S(=O)(=O)Nc3ccccn3)cc2)ccc1O [sulfasalazine] | inhibition of NF-kB activity | marked decrease | decrease of EZH2 at protein level |  | 
Ipilimumab: anti-CTLA-4 antibody used for the treatment of melanoma |  |  |  |  | patients responding to treatment ([5]; melanoma patients): 10%; overall survival ([5]; stage 4 melanoma patients): increased the overall survival
TFD1: p52 decoy, double stranded DNA ODN: forward ATCGGGTCTCC (SEQ ID NO: 6), reverse GGAGAGCCCGAT (SEQ ID NO: 7) (DNA, backbone and methylation of C not given here) |  |  |  | induce senescence | 
TFD4: p52 decoy, double stranded DNA ODN: forward ATCGGGGCTCACC (SEQ ID NO: 8), reverse GGTGAGCCCCGAT (SEQ ID NO: 9) (DNA, backbone and methylation of C not given here) |  |  |  | induce senescence | 
